≈ marks a conversion by molar mass, not a printed value. Where two headings read alike, the source gives them in different places.
How the values were obtained:
S. pyogenes = assay: In vitro MIC testing, antibacterial spectrum of activity; format: cell-based
[1] = test system: Fusobacterium necrophorum; assay: In vitro MIC testing against anaerobic bacteria; format: cell-based; conditions: Fusobacterium necrophorum, ATCC25286
[2] = test system: bacterial protein synthesis (synthesis of reporter protein); assay: In vitro cell-free bacterial transcription and translation assay; format: biochemical; conditions: cell-free bacterial transcription and translation assay (Promega); read-out: IC50, inhibition of the synthesis of reporter protein
[3] = test system: Streptococcus intermedius; assay: In vitro MIC testing against anaerobic bacteria; format: cell-based; conditions: ATCC27335; Streptococcus intermedius 1203, ATCC 27335
[4] = test system: methicillin-sensitive S. aureus (MSSA); assay: In vitro MIC against isolates of MSSA; format: cell-based, Staphylococcus aureus
[5] = test system: community-acquired methicillin-resistant S. aureus (MRSA-CA); assay: In vitro MIC against isolates of MRSA-CA; format: cell-based, Staphylococcus aureus
K. pneumoniae = assay: In vitro MIC testing, antibacterial spectrum of activity; format: cell-based
Salmonella Spp. = assay: as above; format: cell-based; conditions: Salmonella
[6] = test system: Streptococcus spp. [Group C]; assay: as above; format: cell-based; conditions: Streptococcus spp. [Group C] (30 isolates)
[7] = test system: Streptococcus constellatus; assay: In vitro MIC testing against anaerobic bacteria; format: cell-based
Chlamydia trachomatis [8] = assay: Susceptibility testing (MIC, MBC) of 10 isolates of C. trachomatis in HEp-2 cells; format: cell-based
Helicobacter pylori = assay: In vitro MIC against multiple isolates of H. pylori; format: cell-based; conditions: for MIC: read-out: MIC
S. aureus = assay: In vitro MIC testing, antibacterial spectrum of activity; format: cell-based, Staphylococcus aureus; conditions: for MIC50 / MIC90 / MIC: Staphylococcus aureus; for MIC50: read-out: MIC50; for MIC90: read-out: MIC90
E. coli = assay: as above; format: cell-based; conditions: Escherichia coli
P. acnes = assay: as above; format: cell-based, Propionibacterium acnes; conditions: for MIC50: read-out: MIC50; for MIC90: read-out: MIC90
[9] = test system: hospital-associated methicillin-resistant S. aureus (MRSA-HA); assay: In vitro MIC against isolates of MRSA-HA; format: cell-based, Staphylococcus aureus; conditions: MRSA-HA (33 isolates)
Chlamydia trachomatis [10] = assay: In vitro susceptibility testing of Chlamydia trachomatis in HEp-2 cells (first study); format: cell-based; conditions: C. trachomatis strains
Chlamydia pneumoniae = assay: Susceptibility testing (MIC, MBC) of 10 isolates of C. pneumoniae in HEp-2 cells; format: cell-based
E. cloacae = assay: In vitro MIC testing, antibacterial spectrum of activity; format: cell-based; conditions: Enterobacter cloacae; E. cloacae (30 isolates)
Staphylococcus aureus = assay: Inhibition of macromolecular synthesis in Staphylococcus aureus (whole-cell assay); format: cell-based; conditions: S. aureus, at 8-fold the MIC
[11] = Staphylococcus aureus, MRSA-CA (33 isolates)
[12] = Klebsiella pneumoniae, K. pneumoniae (31 isolates)
[13] = MRSA, S. aureus [MRSA] (31 isolates)
[14] = MSSA, S. aureus [MSSA] (32 isolates)
[15] = Cutibacterium acnes, P. acnes [clinical isolates] (55 isolates)
[16] = Cutibacterium acnes, P. acnes [tetS] (13 isolates)

CON(C)Cc1ccc(O)c2c1C[C@H]1C[C@H]3[C@H](N(C)C)C(O)=C(C(N)=O)C(=O)[C@@]3(O)C(O)=C1C2=O [The Active, (4S,4aS,5aR,12aS)-4-dimethylamino-3,10,12,12a-tetrahydroxy-7-[(methoxy(methyl)amino)-methyl]-1,11-dioxo-1,4,4a,5,5a,6,11,12a-octahydro-naphthacene-2-carboxylic acid amide]
MIC Range (S. pyogenes; S. pyogenes (32 isolates)): 0.12 to 16 mg/L | MIC Range (S. pyogenes; S. pyogenes [tetR] (5 isolates)): 4 to 16 mg/L | MIC Range (S. pyogenes; S. pyogenes [tetS] (5 isolates)): ≦0.06-0.25 μg/mL | MIC (S. pyogenes; Streptococcus pyogenes, S. pyogenes strain PBS # 330, tetO): 16 mg/L (≈ 32.8 µM) | MIC (S. pyogenes; Streptococcus pyogenes, S. pyogenes strain PBS # 792, tetM): 4 mg/L (≈ 8.2 µM) | MIC50 (S. pyogenes; Streptococcus pyogenes, S. pyogenes (32 isolates), read-out: MIC50): 0.12 mg/L (≈ 0.246 µM) | MIC90 (S. pyogenes; Streptococcus pyogenes, S. pyogenes (32 isolates), read-out: MIC90): 8 mg/L (≈ 16.4 µM) | MIC [1]: 0.25 mg/L (≈ 0.513 µM) | IC50 [2]: 8.3 ± 0.18 µM | MIC [3]: 1 mg/L (≈ 2.05 µM) | MIC90 ([4]; MSSA (34 isolates)): 1.0 mg/L (≈ 2.05 µM) | MIC Range ([4]; MSSA (34 isolates)): 0.25 to 16 mg/L | MIC50 ([4]; Staphylococcus aureus, MSSA (34 isolates)): 0.25 mg/L (≈ 0.513 µM) | MIC90 ([4]; Staphylococcus aureus, MSSA (34 isolates), read-out: MIC90): 1 mg/L (≈ 2.05 µM) | MIC ([4]; Staphylococcus aureus, single strain of doxycycline-resistant MSSA): 16 mg/L (≈ 32.8 µM) | MIC Range ([5]; MRSA-CA (33 isolates)): 0.12 to 8 mg/L | MIC50 [5, 11]: 0.25 mg/L (≈ 0.513 µM) | MIC90 [5, 11]: 0.5 mg/L (≈ 1.03 µM) | MIC ([5]; Staphylococcus aureus, single strain of doxycycline-resistant MRSA-CA): 8 mg/L (≈ 16.4 µM) | MIC Range (K. pneumoniae; K. pneumoniae [tetS] (7 isolates)): 16 to 64 mg/L | MIC50 (K. pneumoniae; [12]): > 64 mg/L | MIC90 (K. pneumoniae; [12]): > 64 mg/L | MIC (K. pneumoniae; Klebsiella pneumoniae, K. pneumoniae strain PBS # 266, tetD): > 64 mg/L | MIC90 (Salmonella Spp.): > 64 mg/L | MIC Range [6]: 0.12 to 16 mg/L | MIC50 ([6]; read-out: MIC50): 0.25 mg/L (≈ 0.513 µM) | MIC90 ([6]; read-out: MIC90): 16 mg/L (≈ 32.8 µM) | MIC ([7]; ATCC27823, Streptococcus constellatus 1202, ATCC 27823, read-out: MIC): 32 mg/L (≈ 65.6 µM) | MIC ([7]; Streptococcus constellatus, S. constellatus, summary of Table 1, read-out: MIC, high MIC values): > 16 mg/L | MIC 90% (Chlamydia trachomatis [8]; 72 h): 0.125 mg/L (≈ 0.256 µM) | MIC Range (Chlamydia trachomatis [8]; 72 h): 0.03 to 0.125 mg/L | MIC50 (Chlamydia trachomatis [8]; Chlamydia trachomatis, 72 h): 0.06 mg/L (≈ 0.123 µM) | MIC90 (Chlamydia trachomatis [8]; Chlamydia trachomatis, 72 h): 0.125 mg/L (≈ 0.256 µM) | MBC (Chlamydia trachomatis [8]; Chlamydia trachomatis, after passage, read-out: MBC 90%): 0.125 mg/L (≈ 0.256 µM) | MBC 90% (Chlamydia trachomatis [8]; after passage): 0.125 mg/L (≈ 0.256 µM) | MBC Range (Chlamydia trachomatis [8]; after passage): 0.03 to 0.125 mg/L | MIC Range (Helicobacter pylori; H. pylori clinical isolate summary): 1 to 8 mg/L | concentration inhibiting 12 out of 13 strains (Helicobacter pylori; H. pylori, 12 out of 13 strains): 1 to 2 µg/mL | concentration inhibiting all test strains (Helicobacter pylori; H. pylori, all 13 test strains): ≤ 8 µg/mL | MIC (Helicobacter pylori; Helicobacter pylori, ATCC43504, H. pylori reference strain, culture No. 3718, ATCC 43504): 2 mg/L (≈ 4.1 µM) | MIC (Helicobacter pylori; Helicobacter pylori, ATCC700824, H. pylori reference strain, culture No. 3719, ATCC 700824): 2 mg/L (≈ 4.1 µM) | MIC (Helicobacter pylori; Helicobacter pylori, ATCCBAA945, H. pylori reference strain, culture No. 3720, ATCC BAA-945): 1 mg/L (≈ 2.05 µM) | MIC (Helicobacter pylori; Helicobacter pylori, H. pylori clinical isolate, culture No. 4368): 2 mg/L (≈ 4.1 µM) | MIC (Helicobacter pylori; Helicobacter pylori, H. pylori clinical isolate, culture No. 4369): 8 mg/L (≈ 16.4 µM) | MIC (Helicobacter pylori; Helicobacter pylori, H. pylori clinical isolate, culture No. 4370): 2 mg/L (≈ 4.1 µM) | MIC (Helicobacter pylori; Helicobacter pylori, H. pylori clinical isolate, culture No. 4371): 2 mg/L (≈ 4.1 µM) | MIC (Helicobacter pylori; Helicobacter pylori, H. pylori clinical isolate, culture No. 4372): 1 mg/L (≈ 2.05 µM) | MIC (Helicobacter pylori; Helicobacter pylori, H. pylori clinical isolate, culture No. 4374): 2 mg/L (≈ 4.1 µM) | MIC (Helicobacter pylori; Helicobacter pylori, H. pylori clinical isolate, culture No. 4375): 2 mg/L (≈ 4.1 µM) | MIC (Helicobacter pylori; Helicobacter pylori, H. pylori clinical isolate, culture No. 4377): 1 mg/L (≈ 2.05 µM) | MIC (Helicobacter pylori; Helicobacter pylori, H. pylori clinical isolate, culture No. 4503): 2 mg/L (≈ 4.1 µM) | MIC (Helicobacter pylori; Helicobacter pylori, H. pylori clinical isolate, culture No. 4504): 1 mg/L (≈ 2.05 µM) | MIC90 (Helicobacter pylori; Helicobacter pylori, H. pylori, MIC for 90% of clinical test isolates, read-out: MIC90): 2 mg/L (≈ 4.1 µM) | MIC50 (Helicobacter pylori; Helicobacter pylori, read-out: MIC50): 2 mg/L (≈ 4.1 µM) | MIC Range (S. aureus; S. aureus [MRSA] (31 isolates)): 0.25 to 4 mg/L | MIC Range (S. aureus; S. aureus [MSSA] (32 isolates)): 0.25 to 16 mg/L | MIC Range (S. aureus; S. aureus [tetR] (10 isolates)): 0.125 to 32 mg/L | MIC Range (S. aureus; S. aureus [tetS] (20 isolates)): ≦0.06-0.25 μg/mL | MIC50 (S. aureus; [13]): 0.25 mg/L (≈ 0.513 µM) | MIC90 (S. aureus; [13]): 0.5 mg/L (≈ 1.03 µM) | MIC50 (S. aureus; [14]): 0.5 mg/L (≈ 1.03 µM) | MIC90 (S. aureus; [14]): 0.5 mg/L (≈ 1.03 µM) | MIC50 (S. aureus; S. aureus [tetR] (10 isolates)): 4 mg/L (≈ 8.2 µM) | MIC90 (S. aureus; S. aureus [tetR] (10 isolates)): 16 mg/L (≈ 32.8 µM) | MIC50 (S. aureus; S. aureus [tetS] (20 isolates)): 0.125 mg/L (≈ 0.256 µM) | MIC90 (S. aureus; S. aureus [tetS] (20 isolates)): 0.25 mg/L (≈ 0.513 µM) | MIC (S. aureus; S. aureus strain PBS # 1309, tetK): 0.5 mg/L (≈ 1.03 µM) | MIC (S. aureus; S. aureus strain PBS # 1310, tetM): 8 mg/L (≈ 16.4 µM) | MIC (S. aureus; S. aureus strain PBS # 1739, tet38): 4 mg/L (≈ 8.2 µM) | MIC (E. coli): > 64 mg/L | MIC90 (E. coli): > 64 mg/L | MIC (P. acnes; Cutibacterium acnes): > 8 mg/L | MIC50 (P. acnes; [15]): 0.5 mg/L (≈ 1.03 µM) | MIC90 (P. acnes; [15]): 4 mg/L (≈ 8.2 µM) | MIC50 (P. acnes; [16]): 0.5 mg/L (≈ 1.03 µM) | MIC90 (P. acnes; [16]): 2 mg/L (≈ 4.1 µM) | MIC Range (P. acnes; P. acnes [clinical isolates] (55 isolates)): 0.5 to 16 mg/L | MIC Range (P. acnes; P. acnes [tetS] (2 isolates)): 0.25 to 1 mg/L | MIC Range (P. acnes; P. acnes [tetS] (13 isolates)): 0.25 to 4 mg/L | MIC Range [9]: 0.25 to 0.5 mg/L | MIC50 ([9]; Staphylococcus aureus): 0.25 mg/L (≈ 0.513 µM) | MIC90 ([9]; Staphylococcus aureus): 0.5 mg/L (≈ 1.03 µM) | MIC Range (Chlamydia trachomatis [10]): 0.06 to 0.125 mg/L | MIC90 (Chlamydia trachomatis [10]; Chlamydia trachomatis, read-out: MIC at which 90% of the strains were inhibited (MIC90)): 0.125 mg/L (≈ 0.256 µM) | MBC (Chlamydia trachomatis [10]; Chlamydia trachomatis, read-out: minimum bactericidal concentration at which 90% of the strains were inhibited (MBC90)): 0.125 mg/L (≈ 0.256 µM) | MIC 90% (Chlamydia pneumoniae; 72 h): 0.5 mg/L (≈ 1.03 µM) | MIC Range (Chlamydia pneumoniae; 72 h): 0.125 to 0.5 mg/L | MIC50 (Chlamydia pneumoniae; Chlamydia pneumoniae, 72 h): 0.25 mg/L (≈ 0.513 µM) | MIC90 (Chlamydia pneumoniae; Chlamydia pneumoniae, 72 h): 0.5 mg/L (≈ 1.03 µM) | MBC (Chlamydia pneumoniae; Chlamydia pneumoniae, after passage, read-out: MBC 90%): 0.25 mg/L (≈ 0.513 µM) | MBC 90% (Chlamydia pneumoniae; after passage): 0.25 mg/L (≈ 0.513 µM) | MBC Range (Chlamydia pneumoniae; after passage): 0.125 to 0.5 mg/L | MIC50 (E. cloacae): 32 mg/L (≈ 65.6 µM) | MIC90 (E. cloacae): > 64 mg/L | inhibition of the synthesis of cell wall, DNA, RNA and lipid components (Staphylococcus aureus): less than 20% | maximum inhibition of incorporation of [3H]-leucine into proteins (Staphylococcus aureus): 80%
